What was measured:
[1] = In vitro free radical inhibition test (DPPH method); conditions: 8 μL of 20 mmol/L compound in 1 mL DPPH 0.059 mg/mL ethanol, 60 min dark, 517 nm; for inhibition rate %: DPPH; for Relative inhibition ability on free radicals: inhibition rate of AGI1067 on DPPH defined as 100
Description: 1. In Vitro Free Radical Inhibition Test (DPPH Method)
The single electron of DPPH radical has a strong absorption at […], and its alcohol solution is purple. In the presence of a free radical scavenger, the absorption of DPPH radical is weakened or disappeared for the reason that the free radical scavenger is paired with the single electron of DPPH radical, and the degree of discoloration is quantitatively related to the number of electrons DPPH radical receives. Therefore, a spectrophotometer can be used to quickly and quantitatively analyze the free radical scavenging rate of the compound.
1) 1 mL solution of DPPH in absolute ethanol (concentration: 0.059 mg/mL) was taken; 2) 8 μL of the compound to be tested (20 mmol/L) were added; 3) after mixing well, the resultant was kept in dark at room temperature for 60 minutes, 4) the absorbance of the sample at 517 nm was measured.

[2] = test system: golden hamsters (60% high-fat food, STZ induced); experiment: Golden hamster disease model, animal model induction group (16-week-old group): blood biochemical indexes and body weight; format: in vivo; conditions: for change rate of blood glucose %: 0.1 mL of 6.8 mg/mL DMSO solution + 0.25 mL whole milk by gavage once a day for 2 weeks; for change rate of body weight after deduction of DMSO blank %: DMSO blank deducted; for average body weight after administration/g / change of body weight/g / change rate of body weight %: after gavage once a day for 2 weeks; for HDL % / LDL % / total cholesterol % / triglyceride %: change rate, gavage once a day for 2 weeks
Experimental: (§1) Animals and feed: 1) 8-week-old male golden hamsters with a body weight range of 100±5 g were selected; 2) 60% high-fat food; 3) 30% high-fat food; 4) general feed: NRC standard feed, containing 5% fat, total calories 4200 kcal/kg.
Animal model induction group (16-week-old group): 1) fed with 60% high-fat food for 2 weeks under standard environment; 2) STZ intraperitoneal injection twice every two days, 50 mg/kg each time; 3) After STZ induction, the golden hamsters were continuous fed for 1 week; 4) Blood was taken from the ocular venous plexus, and the initial body weight, blood glucose, total cholesterol, LDL-c, HDL-c and triglyceride were measured, and the golden hamsters were grouped in parallel according to animal biochemical indicators, 8 in each group; 5) Gavage of compounds: 0.1 mL of solution of compound (concentration: 6.8 mg/mL, DMSO solution) and 0.25 mL of whole milk were mixed evenly and administrated by gavage once a day for 2 weeks; 6) Blank control: 0.1 mL of DMSO and 0.25 mL of whole milk were mixed evenly and administrated by gavage once a day for 2 weeks; 7) Observation time: 14 days later, blood was taken from the ocular venous plexus, and the body weight, blood glucose, total cholesterol, LDL-c, HDL-c and triglyceride were measured.
(§2) Instruments: Shimadzu UV-1750 spectrophotometer, clinical determination kit (Changchun Huili Biotechnology Co., Ltd.)
(§3) Determination of blood glucose: glucose oxidase method, kit
(§4) Determination of total cholesterol (COD-PAP method), kit
(§5) Determination of low density lipoprotein cholesterol (direct method), kit
(§6) Determination of triglyceride (GP-PAP method)
(§7) Determination of high density lipoprotein (direct method), kit

[3] = test system: golden hamsters (high-fat food, STZ induced); experiment: Golden hamster disease model, animal model induction group (24-week-old group): blood biochemical indexes and body weight; format: in vivo; conditions: for change rate of blood glucode %: 0.1 mL of 6.8 mg/mL DMSO solution + 0.25 mL whole milk by gavage once a day for 2 weeks; for change rate of body weight after deduction of DMSO blank %: DMSO blank deducted; for change of body weight/g / change rate of body weight %: after gavage once a day for 2 weeks; for HDL % / LDL % / total cholesterol % / triglyceride %: change rate, gavage once a day for 2 weeks; for average body weight at 24 weeks/g: initial weight before administration
Description: as §1
Animal model induction group (24-week-old group): After STZ induction, the golden hamsters were continuous fed with 30% high-fat food for 8 weeks, blood was taken from the ocular venous plexus, and the initial body weight, blood glucose concentration, total cholesterol, LDL-c, HDL-c and triglyceride were measured, and the golden hamsters were grouped in parallel according to animal biochemical indicators, 8 in each group; 5) Gavage of compounds: 0.1 mL of solution of compound (concentration: 6.8 mg/mL, DMSO solution) and 0.25 mL of whole milk were mixed evenly and administrated by gavage once a day for 2 weeks; 6) Blank control: 0.1 mL of DMSO and 0.25 mL of whole milk were mixed and administrated by gavage, once a day for 2 weeks; 6) Blank control: 0.1 mL of DMSO were mixed with 0.25 mL of whole milk, and administrated by gavage, once a day for 2 weeks; 7) 14 days later, blood was taken from the ocular venous plexus, and the body weight, blood glucose, total cholesterol, LDL-c, HDL-c and triglyceride were measured.
as §2, §3, §4, §5, §6, §7

[4] = test system: Malondialdehyde (MDA) in serum; experiment: In vivo anti-lipid oxidation experiment (serum MDA, TBA method); set-up: inhibition rate %: concentration or dose not given beside the values; conditions: MAD lipid peroxidation in vivo; for inhibition rate %: relative to solvent DMSO and Chow averages; for avarage value of OD: serum, TBA method, 532 nm
Description: Experimental principle: Malondialdehyde (MDA) in liposome degradation products could condense with thiobarbituric acid (TBA) to form a red product which has a maximum absorption peak at 532 nm. The spectrophotometer was used to measure the relative absorption value to calculate the antioxidant value.
Reagents: Malondialdehyde (MDA) test kit (article number: A003-1, […], Nanjing Jiancheng), glacial acetic acid of analytically pure grade.
Reagent preparations: 1) Reagent I: Reagent 1 in the kit was taken out from the refrigerator and subjected to natural warming until a transparent liquid is obtained; 2) Reagent II: 170 mL of double-distilled water was added to each bottle and mixed; 3) Reagent III: A dry powder in the kit was dissolved in 60 mL of double-distilled water at 90 to 100° C. After the dry powder was dissolved totally, 30 mL of glacial acetic acid was added and kept in dark place; 4) Standard: 10 nmol/mL tetraethoxypropane.
Experimental procedures: 1) Blank tube: To 2 mL centrifuge tube were added anhydrous ethanol (70 μl), Reagent I (70 μl), Reagent II (0.8 mL) and Reagent III (0.8 mL) in sequence; 2) Standard tube: To 2 mL centrifuge tube were added standard (70 μl), Reagent I (70 μl), Reagent 11 (0.8 mL) and Reagent III (0.8 mL) in sequence; 3) Measuring tube: To 2 mL centrifuge tube were added the serum to be tested and physiological saline (the total volume of serum and physiological saline is 70 μl), Reagent I (70 μl), Reagent II (0.8 mL) and Reagent III (0.8 mL) in sequence; 4) Control tubes: all samples are set up with corresponding control tubes. To a 2 mL centrifuge tube were added the serum to be tested and physiological saline (the total volume of serum and physiological saline is 70 μl), Reagent I (70 μl), Reagent II (0.8 mL) and 50% glacial acetic acid (0.8 mL) in sequence.
After the above reagents were added, the mixture was mixed homogenously. Then the mixture was left in the water bath at 95° C. for 60 minutes. The sample was centrifuged at 4000 rpm for 10 minutes. The supernatant was taken for the measurement of the OD value.
Experimental data processing: the MDA content in serum was calculated as follows: MDA=(OD valuemeasured−OD valuecontrol)/OD valuestandard*concentration of the standard Inhibition rate %=100−(ODsample-average value−average value of Chow)/(average value of the solvent DMSO−average value of Chow)*100

Row | SMILES | inhibition rate % [1] | Relative inhibition ability on free radicals [1] | change rate of blood glucose % [2] | change rate of body weight after deduction of DMSO blank % [2] | average body weight after administration/g [2] | change of body weight/g [2] | change rate of body weight % [2] | HDL % [2] | LDL % [2] | total cholesterol % [2] | triglyceride % [2] | change rate of blood glucode % [3] | change rate of body weight after deduction of DMSO blank % [3] | change of body weight/g [3] | change rate of body weight % [3] | HDL % [3] | LDL % [3] | total cholesterol % [3] | inhibition rate % [4] | avarage value of OD [4] | other results
1 | COC(=O)CNCCC(C)(C)c1cc(SC(C)(C)Sc2cc(C(C)(C)C)c(O)c(C(C)(C)C)c2)cc(C(C)(C)C)c1O [Compound 21] | 22.3% | 51.2 | −35.5% | −1.6% | 142.5 g | 10.7 g | 8.1% | 56.3% | 14.2% | −0.6% | −6.5% | −12.4% | −6.1% | -16.4 g | −13.6% | −70.1% | −21.8% | 23.5% | 53.3% | 7.23 | triglyceride % [3]: −65.1%; average body weight at 24 weeks/g [3]: 120.0 g
2 | CC(O)c1cc(SSc2cc(C(C)O)c(O)c(C(C)(C)C)c2)cc(C(C)(C)C)c1O (centres unmarked) [Compound 5, 4,4′-disulfanediyl-bis(2-(tert-butyl)-6-(1-hydroxyethyl)phenol)] | 48.1% | 110.2 | 19.7% | −1.9% | 145.2 g | 10.6 g | 7.9% | 38.8% | −24.9% | −12.2% | −28.5% | 11.5% | −13.6% | -25.0 g | −21.1% | −69.2% | −33.9% | 6.6% | 79.6% | 6.21 | triglyceride % [3]: −65.8%; average body weight at 24 weeks/g [3]: 118.1 g
3 | CC(C)(Sc1cc(C(C)(C)C)c(O)c(C(C)(C)C)c1)Sc1cc(C(C)(C)C)c(OC(=O)CCC(=O)NCCS(=O)(=O)O)c(C(C)(C)C)c1 [Compound 26, 2-(4-(2,6-di-tert-butyl-4-((2-((3,5-di-tert-butyl-4-hydroxyphenyl)thio)propan-2-yl)thio)phenoxy)-4-oxobutanamido)ethane-1-sulfonic acid] | 16.3% | 37.4 | −16.8% | −2.9% | 145.2 g | 9.4 g | 6.9% | 108.8% | −6.2% | −9.0% | 3.0% | −14.2% | −6.4% | -18.1 g | −13.9% | −67.5% | −23.0% | 30.5% | 108.7% | 5.10 | triglyceride % [3]: −5.1%; average body weight at 24 weeks/g [3]: 130.1 g
4 | CC(C)(Sc1cc(C(C)(C)C)c(O)c(C(C)(C)C)c1)Sc1cc(C(C)(C)C)c(O)c(C(C)(C)CCOC(=O)CCCCC2CCSS2)c1 (centres unmarked) [Compound 12, 3-(3-(tert-butyl)-5-((2-((3,5-di-tert-butyl-4-hydroxyphenyl)thio)propan-2-yl)thio)-2-hydroxyphenyl)-3-methylbutyl 5-(1,2-dithiolan-3-yl)pentanoate] | 36.5% | 83.6 | −17.0% | −1.6% | 135.4 g | -2.3 g | −1.6% | −3.4% | −35.8% | −30.7% | −43.0% | −29.0% | −6.6% | -17.3 g | −14.2% | −72.1% | −32.7% | −0.3% | 64.0% | 6.82 | triglyceride % [3]: −51.7%; average body weight at 24 weeks/g [3]: 122.4 g
5 | CC(C)(Sc1cc(C(C)(C)C)c(O)c(C(C)(C)C)c1)Sc1cc(C(C)(C)C)c(O)c(C(C)(C)CCO)c1 [Compound 8, 2,6-di-tert-butyl-4-((2-((3-(tert-butyl)-4-hydroxy-5-(4-hydroxy-2-methylbutan-2-yl)phenyl)thio)propan-2-yl)thio)phenol] | 37.7% | 86.5 | 48.6% | −6.1% | 149.0 g | 5.3 g | 3.7% | 60.2% | 11.1% | −7.6% | 59.1% |  |  |  |  |  |  |  | 59.8% | 6.98 | 
